This is an account of results in patent US10889552B2, “Dihydroxybenzamide compound having HSP90 inhibitory activity or pharmaceutically acceptable salt thereof, and medical use thereof” (priority 2016, dated 2021).

For series [1], the system named is H1975 cells. The experiment in a line: Cell viability by MTS analysis in H1975 cells resistant to Gefitinib. Type of series: cell-based. As to conditions: H1975, cultured for 3 days. As to the method:
To confirm the cell viability according to the concentration of the compound synthesized in H1975 cells (ATCC) resistant to Gefitinib, MTS [3-(4,5-dimethylthiazol-2-yl)-5-[…]carboxymethoxyphenyl)-2-(4-sulfophenyl)-2H-terazolium, inner salt] analysis was performed. When the cells were cultured so as to occupy 80% of the bottom of the culture dish, the cells were detached and diluted with RPMI 1640 medium to a concentration of 1.5×10^3 cells/well. Each 100 μL of the suspension was added to each well of a 96-well plate and cultured for 14 hours.

In series [2] the test system is H1975. Put plainly: Cell proliferation / survival inhibition by MTS analysis (H1975). Type of series: cell-based. The settings on record: for Inhibition rate at 10 μM (%) / Inhibition rate at 30 μM (%): test system not given. How it is done:
Sk-Br3 (Korean cell line bank), a breast cancer cell, and H1975 cell (ATCC), a nonsmall cell lung cancer, were cultured in RPMI 1640 containing 25 mM HEPES (4-(2-hydroxyethyl)-1-piperazineethanesulfonic acid) and RPMI 1640 containing L-glutamine (containing streptomycin ([…]), penicillin (100 units/mL) and 10% fetal bovine serum (FBS)).
Next, non-metastatic lung cancer cells were treated with Compound 17 and the cell proliferation rate or cell survival rate was measured by MTS [3-(4,5-dimethylthiazol-2-yl)-5-(3-carboxymethoxyphenyl)-1-2H-tetrazolium, inner salt] analysis.
Cells were dispensed in 96-well plates at 3000 cell/well (Sk-Br3) and 2000 cell/well (H1975), and 100 μL of the medium was added per well and then was incubated overnight.
Cell proliferation was evaluated using the Promega Cell Titer 96 Aqueous One Solution cell proliferation assay.
After compound and cell culture, 20 μL of assay substrate solution was added to each well and incubated at 37° C. for an additional 1 hour.
Cell proliferation was confirmed by measuring the absorbance at 490 nm using a microplate reader (Tecan Infinite F200 Proplate reader).

A short description of series [3]: Log P. It is filed as physicochemical. The settings on record: text: measured values of Log P. How it is done: All experimental data were analyzed using Prism software (version 5.0, Graphpad Software, San Diego, Calif.). In addition, tPSA (Topological Polar Surface Area) calculated using Cherndraw software and the measured values of Log P are shown in Tables 1 and 2 below.

Series [4] deals with H1975 cells. The experiment in a line: H1975 colony formation inhibitory effect (clonogenic assay). It is filed as cell-based. The settings on record: at 0.05 µM), 3 weeks, FIG. 3. How it is done: H1975 cells were treated with Compound 17 at a concentration of 0.05 or 0.5 μM for 3 weeks and then clogenic assay was performed.
First, RPMI1640 medium (10% FBS, 0.48% agar) was added to a 6-well plate and hardened, and then, 10000 cells (H1975) were dispensed in a medium containing RPMI1640 medium (10% FBS, 0.33% agar) and solidified. After solidification, the cells were treated with compound at a concentration of 0.05 or 0.5 […] for 24 hours, followed by culturing for 3 weeks, and then colony formation was confirmed using a crystal violet staining solution.

For series [5], the system named is HSP90 client protein of EGFR, Her2, Met, Akt, c-Raf, Cpk4. The experiment in a line: Protein expression analysis (western blot) after Compound 17 treatment. It is filed as cell-based. The settings on record: 0.05, 0.1, 0.5 or 1 μM, 24 hours, FIG. 4. How it is done:
Next, the cells were dispensed into 100 mm culture dishes (1×10^6/dish) and adhered to the bottom surface overnight. Compound 17 at a concentration of 0.05, 0.1, 0.5 or 1 μM was added to the cells, followed by further culture for 24 hours.
In addition, cells were treated with DMSO (1%) or geladinamycin (1 μM) as a control and cultured for 24 hours.
The cultured cells were harvested and lysed in ice-cold lysis buffer (23 mM Tris-HCl pH 7.6, 130 mM NaCl, 1% NP40, […], 0.1% SDS (sodium dodecylsulfate)), and 30 μg of the lysate was separated by SDS-PAGE (SDS-polyacrylamide gel electrophoresis) and transferred to a PVDF membrane (Bio-Rad).
Membranes were blocked with TBST (Tween 20 containing iris-Buffered Saline) containing 5% skim milk and incubated with the respective primary antibodies [EGFR (Epidermal growth factor receptor), Her2 (human epidermal growth factor receptor type 2), Met, N-cadherin, E-cadherin, α-tubulin, acetyl-α-tubulin, protein kinase B (Akt), c-Raf, Cdk4 (Cyclin-dependent kinase 4), HSP90, HSP70, PARP (Poly […] Polymerase), caspase 3, cleaved caspase 3, truncated caspase 8, B-cell lymphoma 2 (Bcl-2). Bax or β-Actin, purchased from Cell Signaling Technology (USA)].
After binding to a secondary antibody conjugated with horseradish peroxidase, the protein was visualized by ECL (electrochemiluminescence, GE healthcare, USA).
For orientation: Immunoblotting shows a protein as a band on a membrane.

The subject of series [6] is HSP90 client protein (Her2, EGFR, Met, c-Raf, Akt), HSP70. The experiment in a line: Analysis of protein expression (western blot) in H1975 cells, Compound 21f. It is filed as cell-based. As to the method: Compound 21f having good efficacy was selected and HSP90 client protein proliferation effect in the same cell line was confirmed, in which the HSP90 client proteins were Her2 (human EGFR-related 2), EGFR (epidermal growth factor receptor), Met and c-Raf were used.
H1975 cells resistant to Gefitinib were cultured in a medium supplemented with 10% fetal bovine serum (FBS) for 24 hours, and the cells were detached, harvested and diluted with a RPMI 1640 medium so as to be 5×10^5 cells/well. Each 5 mL of the suspension was added to […] culture dish and cultured for 24 hours. Then, the medium was changed to the culture solution treated with each compound of concentration (21f 0, 0.05, 0.1, 0.5 or 1 μM, GA: 1 μM), and cultured for 24 hours. After culture, the cells were harvested and centrifuged at 1300 rpm for 5 minutes at 4° C., and the supernatant was removed. The pellet was washed with phosphate buffered saline, centrifuged once again under the same conditions, and the supernatant was removed. Lysis buffer was added to the remaining pellet and lysed by vortexing at 5 minute intervals for 30 minutes. The supernatant was separated by centrifugation at 16000 rcf for 4 minutes at 4° C., and proteins were quantified using BCA ([…]) kit. SDS-PAGE (sodium dodecylsulfate-polyacrylamide gel electrophoresis) was performed using 10, 12% running gel and 4% stacking gel (10 mA per gel). The separated proteins were transferred to an immunoblot PVDF, membrane (polyvinylidene fluoride membrane) at 100 V for 75 minutes. The membranes were blocked with 5% skim milk solution for 2 hours and then added a primary antibody diluted in the ratio of 1:750-1,000 in 0.1% tween-20 solution and reacted at 4° C. for 12 hours. After washing three times with TBS-T (Tris-buffered saline and Tween 20 containing Tween 20) and detected with an image analyzer using ECL (enhanced chemiluminescence) solution.

The term EC50 denotes the concentration needed to bring the measured effect to its halfway point. High values mean a less potent agent, low ones a more potent agent. Turning to “5-chloro-2,4-dihydroxy-n-methyl-n-(2-methylbenzyl)benzamide [Compound 16a]”, in series [1], the midpoint of the response, the EC50, lay at 49.3 µM.

The molecule “5-chloro-2,4-dihydroxy-n-methyl-n-(3-methylbenzyl)benzamide [Compound 14i]” displayed a 50% effective concentration (EC50) in series [1] of 47.5 µM.

Usually LogP stands for a log measure of how a compound divides between an organic and an aqueous phase. Low values mean a more hydrophilic compound, high ones a more lipophilic compound. Regarding `O=C(c1cc(Cl)c(O)cc1O)N1CCCCC1` [Compound 11b], in series [2], the “Inhibition rate at 10 μM (%)” value was 7.6% and the “Inhibition rate at 30 μM (%)” value was 26.3%. For the same molecule, the LogP in series [3] is on record as 1.69.

`CC(=O)N1CCN(C(=O)c2cc(Cl)c(O)cc2O)CC1` [Compound 11f, 1-(4-(5-chloro-2,4-dihydroxybenzol)piperazin-1-yl)ethanone]: in series [2], the “Inhibition rate at 10 μM (%)” value worked out at 0% and the “Inhibition rate at 30 μM (%)” value amounted to 10.5%. For the same molecule, in series [3], the LogP was 0.25.

As to `COc1ccc(CN(C)C(=O)c2cc(Cl)c(O)cc2O)cc1` [Compound 14c, 5-chloro-2,4-dihydroxy-n-(4-methoxybenzyl)-n-methylbenzamide], the midpoint of the response in series [1], the EC50, lay at 16.7 µM.

In turn, `COc1ccc(CN(C)C(=O)c2cc(Cl)c(O)cc2O)cc1OC` [Compound 14d, 5-chloro-n-(3,4-dimethoxybenzyl)-2,4-dihydroxy-n-methylbenzamide] returned an EC50 in series [1] of 33.4 µM.

Turning to `COc1cc(CN(C)C(=O)c2cc(Cl)c(O)cc2O)c(Cl)c(OC)c1OC` [Compound 14g, 5-chloro-n-(2-chloro-3,4,5-trimethoxybenzyl)-2,4-dihydroxy-n-methylbenzamide], the half-maximal effective concentration (EC50) in series [1] was determined as 33.8 µM.

Consider `Cc1ccc(CN(C)C(=O)c2cc(Cl)c(O)cc2O)cc1` [Compound 16b, 5-chloro-2,4-dihydroxy-n-methyl-n-(4-methylbenzyl)benzamide], for which, in series [1], the response was half-maximal at 34.3 µM (EC50).

Consider `CC(C)c1cc(C(=O)N2CCN(C)CC2c2ccccc2)c(O)cc1O` (centres unmarked) [Compound 17, (2,4-dihydroxy-5-isopropylphenyl)(4-methyl-2-phenylpiperazin-1-yl)methanone], for which the “proliferation rate of the cells” value in series [2] (0-70 μM, 1, 2 and 3 days, FIG. 2A) is given as “inhibited in a concentration-dependent manner”. In addition, in series [4], the “colony formation of H1975” value is “inhibited the colony formation”. Besides, in series [5], the “HSP protein inhibition / degradation of HSP90 client protein” value is listed as “inhibited HSP protein in concentration-dependent manner”.

`CCNC(=O)c1ccc(CN(C)C(=O)c2cc(Cl)c(O)cc2O)cc1` [Compound 21b, 5-chloro-n-(4-(ethylcarbamoyl)benzyl)-2,4-dihydroxy-n-methylbenzamide] showed a half-maximal effective concentration (EC50) in series [1] of 21.7 µM.

Consider `CCCNC(=O)c1ccc(CN(C)C(=O)c2cc(Cl)c(O)cc2O)cc1` [Compound 21c, 5-chloro-2,4-dihydroxy-n-methyl-n-(4-(propylcarbamoyl)benzyl)benzamide], for which the EC50 in series [1] was 20.8 µM.

On to `CCCNC(=O)c1ccc(CN(C)C(=O)c2cc(C(C)C)c(O)cc2O)cc1` [Compound 21f, 2,4-dihydroxy-5-isopropyl-n-methyl-n-(4-(propylcarbamoyl)benzyl) benzamide], for which the “proliferation (expression) of the HSP90 client protein” value in series [6] (0, 0.05, 0.1, 0.5 or 1 μM, 24 hours, FIG. 5) is “inhibited in a concentration-dependent manner”. Also, in series [6] (H1975, 24 hours), the “concentration at which Akt expression was significantly decreased” value worked out at 0.5 µM, the “concentration at which EGFR expression was significantly decreased” value came to 0.1 µM, the “concentration at which Her2 expression was significantly decreased” value was 0.5 µM and the “concentration at which Met expression was significantly decreased” value came to 0.5 µM. In addition, in series [6] (H1975, 24 hours), the “concentration at which expression of HSP70 was increased” value came to 0.5 µM.
